In US10519152B2, “Compounds and their use in treating cancer” (AstraZeneca AB, priority 2017, dated 2019):

Target: T1, Estrogen Receptor (ERα) in MCF-7 human ductal carcinoma breast cell line (Homo sapiens, UniProt P03372)
T1 construct: endogenous in cells; host or cells: MCF-7
T1 sequence (P03372 1-595): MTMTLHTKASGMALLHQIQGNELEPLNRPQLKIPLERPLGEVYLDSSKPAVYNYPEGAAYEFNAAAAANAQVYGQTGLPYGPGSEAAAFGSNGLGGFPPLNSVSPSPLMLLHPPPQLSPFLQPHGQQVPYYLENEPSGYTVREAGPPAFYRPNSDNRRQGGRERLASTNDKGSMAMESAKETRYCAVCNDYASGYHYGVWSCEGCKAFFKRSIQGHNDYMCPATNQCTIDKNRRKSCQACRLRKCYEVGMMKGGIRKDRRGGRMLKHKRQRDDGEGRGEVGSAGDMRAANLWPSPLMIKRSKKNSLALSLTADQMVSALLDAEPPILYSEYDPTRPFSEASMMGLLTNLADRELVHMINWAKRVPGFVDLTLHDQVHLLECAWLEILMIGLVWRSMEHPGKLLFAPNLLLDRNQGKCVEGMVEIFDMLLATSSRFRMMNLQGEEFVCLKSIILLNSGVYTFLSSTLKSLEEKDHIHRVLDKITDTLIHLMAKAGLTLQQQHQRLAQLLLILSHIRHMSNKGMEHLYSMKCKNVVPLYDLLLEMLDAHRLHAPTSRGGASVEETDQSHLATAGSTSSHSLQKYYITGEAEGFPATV
Assay: MCF-7 ER degradation assay (cell based immuno-fluorescence)
Details: MCF-7 cells; for ER degradation ≥ 90% at 0.3 μM: ER degradation by fulvestrant at 0.3 μM is defined as 100%; for DC50: 18-22 hours incubation, 50% reduction of ERα expression, single experiment or average of two or more, read-out: MCF-7 ER degradation IC50
Procedure, shortened: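 MCF-7 human ductal carcinoma breast cells were seeded at 3.75×10^4 cells per mL (40 μL per well) in 384 well plates with phenol red free DMEM containing 2 mM L-Glutamine and 5% (v/v) Charcoal/Dextran treated foetal calf serum. After overnight culture, compounds were acoustically dispensed, incubated 18-22 hours, then cells were formaldehyde-fixed and immunostained for ERα.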

Row | Compound | ER degradation ≥ 90% at 0.3 μM | DC50
1 | Cc1ncsc1-c1ccc(CNC(=O)[C@@H]2C[C@@H](O)CN2C(=O)[C@@H](NC(=O)COCC(F)(F)COCCCOc2cc(F)c([C@@H]3c4[nH]c5ccccc5c4C[C@@H](C)N3CC(C)(C)F)c(F)c2)C(C)(C)C)cc1 [Example 125, (2S,4R)-1-((S)-2-(2-(3-(3-(3,5-Difluoro-4-((1R,3R)-2-(2-fluoro-2-methylpropyl)-3-methyl-2,3,4,9-tetrahydro-1H-pyrido[3,4-b]indol-1-yl)phenoxy)propoxy)-2,2-difluoropropoxy)acetamido)-3,3-dimethylbutanoyl)-4-hydroxy-N-(4-(4-methylthiazol-5-yl)benzyl)pyrrolidine-2-carboxamide] | •• | 0.7 nM
2 | Cc1ncsc1-c1ccc(CNC(=O)[C@@H]2C[C@@H](O)CN2C(=O)[C@@H](NC(=O)COc2cccc(COc3cc(F)c([C@@H]4c5[nH]c6ccccc6c5C[C@@H](C)N4CC(C)(C)F)c(F)c3)c2)C(C)(C)C)cc1 [Example 20, (2S,4R)-1-((S)-2-(2-(3-((3,5-difluoro-4-((1R,3R)-2-(2-fluoro-2-methylpropyl)-3-methyl-2,3,4,9-tetrahydro-1H-pyrido[3,4-b]indol-1-yl)phenoxy)methyl)phenoxy)acetamido)-3,3-dimethylbutanoyl)-4-hydroxy-N-(4-(4-methylthiazol-5-yl)benzyl)pyrrolidine-2-carboxamide] | • | 1.7 nM
3 | Cc1ncsc1-c1ccc(CNC(=O)[C@@H]2C[C@@H](O)CN2C(=O)[C@@H](NC(=O)COCCCCCOc2cc(F)c([C@@H]3c4[nH]c5ccccc5c4C[C@@H](C)N3CC(C)(C)F)c(F)c2)C(C)(C)C)cc1 [Example 18, (2S,4R)-1-((S)-2-(2-((5-(3,5-Difluoro-4-((1R,3R)-2-(2-fluoro-2-methylpropyl)-3-methyl-2,3,4,9-tetrahydro-1H-pyrido[3,4-b]indol-1-yl)phenoxy)pentyl)oxy)acetamido)-3,3-dimethylbutanoyl)-4-hydroxy-N-(4-(4-methylthiazol-5-yl)benzyl)pyrrolidine-2-carboxamide] | • | 1 nM
4 | Cc1ncsc1-c1ccc(CNC(=O)[C@@H]2C[C@@H](O)CN2C(=O)[C@@H](NC(=O)COCCOCCC(F)(F)CCOc2cc(F)c([C@@H]3c4[nH]c5ccccc5c4C[C@@H](C)N3CC(C)(C)F)c(F)c2)C(C)(C)C)cc1 [Example 127, (2S,4R)-1-((S)-2-(2-(2-((5-(3,5-Difluoro-4-((R,3R)-2-(2-fluoro-2-methylpropyl)-3-methyl-2,3,4,9-tetrahydro-1H-pyrido[3,4-b]indol-1-yl)phenoxy)-3,3-difluoropentyl)oxy)ethoxy)acetamido)-3,3-dimethylbutanoyl)-4-hydroxy-N-(4-(4-methylthiazol-5-yl)benzyl)pyrrolidine-2-carboxamide] | •• | 0.8 nM
5 | Cc1ncsc1-c1ccc(CNC(=O)[C@@H]2C[C@@H](O)CN2C(=O)[C@@H](NC(=O)C(F)(F)OCCCOCCCOc2cc(F)c([C@@H]3c4[nH]c5ccccc5c4C[C@@H](C)N3CC(C)(C)F)c(F)c2)C(C)(C)C)cc1 [Example 119, (2S,4R)-1-((S)-2-(2-(3-(3-(3,5-Difluoro-4-((1R,3R)-2-(2-fluoro-2-methylpropyl)-3-methyl-2,3,4,9-tetrahydro-1H-pyrido[3,4-b]indol-1-yl)phenoxy)propoxy)propoxy)-2,2-difluoroacetamido)-3,3-dimethylbutanoyl)-4-hydroxy-N-(4-(4-methylthiazol-5-yl)benzyl)pyrrolidine-2-carboxamide] | • | 1.4 nM
6 | Cc1ncsc1-c1ccc(CNC(=O)[C@@H]2C[C@@H](O)CN2C(=O)[C@@H](NC(=O)COCCCCCOCCCOc2cc(F)c([C@@H]3c4[nH]c5ccccc5c4C[C@@H](C)N3CC(C)(C)F)c(F)c2)C(C)(C)C)cc1 [Example 136, (2S,4R)-1-((S)-2-(2-((5-(3-(3,5-Difluoro-4-((1R,3R)-2-(2-fluoro-2-methylpropyl)-3-methyl-2,3,4,9-tetrahydro-1H-pyrido[3,4-b]indol-1-yl)phenoxy)propoxy)pentyl)oxy)acetamido)-3,3-dimethylbutanoyl)-4-hydroxy-N-(4-(4-methylthiazol-5-yl)benzyl)pyrrolidine-2-carboxamide] | •• | 1.1 nM
7 | Cc1ncsc1-c1ccc(CNC(=O)[C@@H]2C[C@@H](O)CN2C(=O)[C@@H](NC(=O)COCCCOCCCCCOc2cc(F)c([C@@H]3c4[nH]c5ccccc5c4C[C@@H](C)N3CC(C)(C)F)c(F)c2)C(C)(C)C)cc1 [Example 138, (2S,4R)-1-((S)-2-(2-(3-((5-(3,5-Difluoro-4-((R,3R)-2-(2-fluoro-2-methylpropyl)-3-methyl-2,3,4,9-tetrahydro-1H-pyrido[3,4-b]indol-1-yl)phenoxy)pentyl)oxy)propoxy)acetamido)-3,3-dimethylbutanoyl)-4-hydroxy-N-(4-(4-methylthiazol-5-yl)benzyl)pyrrolidine-2-carboxamide] | •• | 1.1 nM
8 | Cc1ncsc1-c1ccc(CNC(=O)[C@@H]2C[C@@H](O)CN2C(=O)[C@@H](NC(=O)COCCCCCCCOc2ccc([C@@H]3c4[nH]c5ccccc5c4C[C@@H](C)N3CC(F)F)nc2)C(C)(C)C)cc1 [Example 6, (2S,4R)-1-((S)-2-(2-((7-((6-((1S,3R)-2-(2,2-Difluoroethyl)-3-methyl-2,3,4,9-tetrahydro-1H-pyrido[3,4-b]indol-1-yl)pyridin-3-yl)oxy)heptyl)oxy)acetamido)-3,3-dimethylbutanoyl)-4-hydroxy-N-(4-(4-methylthiazol-5-yl)benzyl)pyrrolidine-2-carboxamide] | •• | 3.6 nM
9 | Cc1ncsc1-c1ccc(CNC(=O)[C@@H]2C[C@@H](O)CN2C(=O)[C@@H](NC(=O)CCCCCCCCCOc2cc(F)c([C@@H]3c4[nH]c5ccccc5c4C[C@@H](C)N3CC(C)(C)F)c(F)c2)C(C)(C)C)cc1 [Example 11, (2S,4R)-1-((S)-2-(10-(3,5-Difluoro-4-((1R,3R)-2-(2-fluoro-2-methylpropyl)-3-methyl-2,3,4,9-tetrahydro-1H-pyrido[3,4-b]indol-1-yl)phenoxy)decanamido)-3,3-dimethylbutanoyl)-4-hydroxy-N-(4-(4-methylthiazol-5-yl)benzyl)pyrrolidine-2-carboxamide] | •• | 3.2 nM
10 | Cc1ncsc1-c1ccc(CNC(=O)[C@@H]2C[C@@H](O)CN2C(=O)[C@@H](NC(=O)COCCc2ccc(COc3cc(F)c([C@@H]4c5[nH]c6ccccc6c5C[C@@H](C)N4CC(C)(C)F)c(F)c3)nc2)C(C)(C)C)cc1 [Example 158, (2S,4R)-1-((S)-2-(2-(2-(6-((3,5-Difluoro-4-((1R,3R)-2-(2-fluoro-2-methylpropyl)-3-methyl-2,3,4,9-tetrahydro-1H-pyrido[3,4-b]indol-1-yl)phenoxy)methyl)pyridin-3-yl)ethoxy)acetamido)-3,3-dimethylbutanoyl)-4-hydroxy-N-(4-(4-methylthiazol-5-yl)benzyl)pyrrolidine-2-carboxamide] | • | 0.8 nM
11 | Cc1ncsc1-c1ccc(CNC(=O)[C@@H]2C[C@@H](O)CN2C(=O)[C@@H](NC(=O)CNCCCCCCCCOc2cc(F)c([C@@H]3c4[nH]c5ccccc5c4C[C@@H](C)N3CC(C)(C)F)c(F)c2)C(C)(C)C)cc1 [Example 147, (2S,4R)-1-((S)-2-(2-((8-(3,5-Difluoro-4-((1R,3R)-2-(2-fluoro-2-methylpropyl)-3-methyl-2,3,4,9-tetrahydro-1H-pyrido[3,4-b]indol-1-yl)phenoxy)octyl)amino)acetamido)-3,3-dimethylbutanoyl)-4-hydroxy-N-(4-(4-methylthiazol-5-yl)benzyl)pyrrolidine-2-carboxamide] | • | 5.8 nM
12 | Cc1ncsc1-c1ccc(CNC(=O)[C@@H]2C[C@@H](O)CN2C(=O)[C@@H](NC(=O)CCCCCCCCOc2cc(F)c([C@@H]3c4[nH]c5ccccc5c4C[C@@H](C)N3CC(C)(C)F)c(F)c2)C(C)(C)C)cc1 [Example 15, (2S,4R)-1-((S)-2-(9-(3,5-Difluoro-4-((1R,3R)-2-(2-fluoro-2-methylpropyl)-3-methyl-2,3,4,9-tetrahydro-1H-pyrido[3,4-b]indol-1-yl)phenoxy)nonanamido)-3,3-dimethylbutanoyl)-4-hydroxy-N-(4-(4-methylthiazol-5-yl)benzyl)pyrrolidine-2-carboxamide] | • | 3.9 nM
